Laboratory results taken from patent US4294833A, “Substituted 4-hydroxy-isophthalic acid picolylamides having a pharmaceutical activity in thromboembolic disorders” (Societa Italo-Britannica, priority 1977, dated 1981).

tested on: platelet aggregation induced by ADP; experiment: Platelet aggregation inhibitory activity in vivo (Born aggregometer), ADP-induced; design: species or system New Zealand rabbits; conditions: Oryctolagus cuniculus, Platelet, ip, dose for 50% inhibition of ADP-induced aggregation curve; rabbits, intraperitoneal, blood 2, 4 and 6 hours after injection; read-out: platelet antiaggregant activity (AAP), DI50, ADP
Procedure: (§1) Determination of the platelet aggregation inhibitory activity in vivo
(§2) The activity of the above described compounds as platelet antiaggregant was tested in vivo on rabbits, by the Born aggregometer. The inhibition of the aggregation curve induced by ADP and thrombin was assessed with different drug concentrations according to the platelet reactivity. New Zealand rabbits which had been held fasting for 12 hours with water ad libitum, were anaesthetized with Nembutal in a dose of 35 mg/kg intramuscolarly. The blood was withdrawn from the carotidal arthery, before (control) and 2, 4, and 6 hours after the intraperitoneal injection of the compounds under examination (at the dose indicated below). The blood samples were taken up in a 3.8% aqueous solution of sodium citrate in a ratio 10:1 and thereupon centrifuged at 1500 r.p.m. for 10 minutes, for obtaining a PRP (platelet rich plasma). A portion of such a plasma was thereupon centrifuged at 8000 r.p.m. for 10 minutes, for obtaining a PPP (platelet lean plasma) which was used for zeroing the measuring apparatus.
(§3) From the results of said experiments, there was determined the dose of each product in mg/kg body weight able to induce a 50% inhibition of the aggregation curve (DI50) after treatment, referred to the curve obtained by the same control plasma before treatment.
(§4) In tables I and II are further indicated for each compound the method of preparation; the melting point PF in °C; the platelet antiaggregant activity (AAP) expressed in terms of DI50 in mg/kg, referred to ADP and thrombin respectively; the antithrombin activity (AT) in %; the anticoagulant activity (AC) in %; the fibrinolytic activity (FL) in %; the acute toxicity (LD50) in mice, intraperitoneally, in mg/kg, as previously defined.

Compound | ED50 [mg/kg]
C=C(C)COc1ccc(C(=O)N(Cc2cccnc2)C(C)C)cc1C(=O)N(Cc1cccnc1)C(C)C [Example 56] | 29.1
CCCOc1ccc(C(=O)NCc2ccncc2)cc1C(=O)NCc1ccncc1 [Example 59] | 25.2
COc1cc(C(=O)NCc2cccnc2)cc(C(=O)NCc2cccnc2)c1OCC(C)(C)C [Example 37] | 44.6
C=CCCCOc1ccc(C(=O)NCc2cccnc2)cc1C(=O)NCc1cccnc1 [Example 9] | 36.2
CCC(C)(C)Oc1c(Cl)cc(C(=O)NCc2cccnc2)cc1C(=O)NCc1cccnc1 [Example 29] | 44.1
C=C(C)COc1ccc(C(=O)N(CCC)Cc2ccncc2)cc1C(=O)N(CCC)Cc1ccncc1 [Example 70] | 30.6
CC=COc1c(Cl)cc(C(=O)N(CCCCC)Cc2cccnc2)cc1C(=O)N(CCCCC)Cc1cccnc1 [Example 51] | 51.6
COc1ccc(C(=O)NCc2ccncc2)cc1C(=O)NCc1ccncc1 [Example 58] | 28.1
CCCN(Cc1cccnc1)C(=O)c1ccc(OC)c(C(=O)N(CCC)Cc2cccnc2)c1 [Example 41] | 65.1
C=CCOc1c(Cl)cc(C(=O)NCc2cccnc2)cc1C(=O)NCc1cccnc1 [Example 25] | 59.5
COc1cc(C(=O)NCc2cccnc2)cc(C(=O)NCc2cccnc2)c1OC1CCC1 [Example 19] | 34.7

tested on: not listed separately; experiment: Acute toxicity, intraperitoneal; conditions: mouse, in vivo, ip, male Swiss mice, intraperitoneal, 7 days observation; preliminary, by graphic interpolation; read-out: acute toxicity (LD50 / DL50)
Procedure: The acute toxicity limit was determined intraperitoneally on male Swiss mice, weighing 20±2 g, held fasting for 18 hours with water ad libitum.
The animals were maintained under observation for 7 days of treatment, by examining the general symptomatology and noting the death sequency. The preliminary DL50 in mg/kg body weight was calculated by graphic interpolation of the results as obtained.
as §4

Compound | LD50 at 168 h [mg/kg]
C=C(C)COc1ccc(C(=O)N(Cc2cccnc2)C(C)C)cc1C(=O)N(Cc1cccnc1)C(C)C [Example 56] | 352
CCCOc1ccc(C(=O)NCc2ccncc2)cc1C(=O)NCc1ccncc1 [Example 59] | 623
COc1cc(C(=O)NCc2cccnc2)cc(C(=O)NCc2cccnc2)c1OCC(C)(C)C [Example 37] | 378
C=CCCCOc1ccc(C(=O)NCc2cccnc2)cc1C(=O)NCc1cccnc1 [Example 9] | 375
CCC(C)(C)Oc1c(Cl)cc(C(=O)NCc2cccnc2)cc1C(=O)NCc1cccnc1 [Example 29] | 206
C=C(C)COc1ccc(C(=O)N(CCC)Cc2ccncc2)cc1C(=O)N(CCC)Cc1ccncc1 [Example 70] | 360
CC=COc1c(Cl)cc(C(=O)N(CCCCC)Cc2cccnc2)cc1C(=O)N(CCCCC)Cc1cccnc1 [Example 51] | 205
COc1ccc(C(=O)NCc2ccncc2)cc1C(=O)NCc1ccncc1 [Example 58] | 704
CCCN(Cc1cccnc1)C(=O)c1ccc(OC)c(C(=O)N(CCC)Cc2cccnc2)c1 [Example 41] | 620
C=CCOc1c(Cl)cc(C(=O)NCc2cccnc2)cc1C(=O)NCc1cccnc1 [Example 25] | 184
COc1cc(C(=O)NCc2cccnc2)cc(C(=O)NCc2cccnc2)c1OC1CCC1 [Example 19] | 254

tested on: platelet aggregation induced by thrombin; experiment: Platelet aggregation inhibitory activity in vivo (Born aggregometer), thrombin-induced; design: species or system New Zealand rabbits; conditions: Oryctolagus cuniculus, Platelet, ip, dose for 50% inhibition of thrombin-induced aggregation curve; rabbits, intraperitoneal, blood 2, 4 and 6 hours after injection; read-out: platelet antiaggregant activity (AAP), DI50, Thrombin
Procedure: as §1, §2, §3, §4

Compound | ED50 [mg/kg]
C=C(C)COc1ccc(C(=O)N(Cc2cccnc2)C(C)C)cc1C(=O)N(Cc1cccnc1)C(C)C [Example 56] | 21.4
CCCOc1ccc(C(=O)NCc2ccncc2)cc1C(=O)NCc1ccncc1 [Example 59] | 18.1
COc1cc(C(=O)NCc2cccnc2)cc(C(=O)NCc2cccnc2)c1OCC(C)(C)C [Example 37] | 32
C=CCCCOc1ccc(C(=O)NCc2cccnc2)cc1C(=O)NCc1cccnc1 [Example 9] | 23.2
CCC(C)(C)Oc1c(Cl)cc(C(=O)NCc2cccnc2)cc1C(=O)NCc1cccnc1 [Example 29] | 30.7
C=C(C)COc1ccc(C(=O)N(CCC)Cc2ccncc2)cc1C(=O)N(CCC)Cc1ccncc1 [Example 70] | 20.8
CC=COc1c(Cl)cc(C(=O)N(CCCCC)Cc2cccnc2)cc1C(=O)N(CCCCC)Cc1cccnc1 [Example 51] | 32.4
COc1ccc(C(=O)NCc2ccncc2)cc1C(=O)NCc1ccncc1 [Example 58] | 21.3
CCCN(Cc1cccnc1)C(=O)c1ccc(OC)c(C(=O)N(CCC)Cc2cccnc2)c1 [Example 41] | 46.5
C=CCOc1c(Cl)cc(C(=O)NCc2cccnc2)cc1C(=O)NCc1cccnc1 [Example 25] | 35.4
COc1cc(C(=O)NCc2cccnc2)cc(C(=O)NCc2cccnc2)c1OC1CCC1 [Example 19] | 25.2

tested on: thrombin-induced coagulation of platelet rich plasma; experiment: Antithrombin activity on PRP, Hartert's thromboelastograph; assay type: in vivo, New Zealand rabbits; conditions: Oryctolagus cuniculus, Platelet, ip, percent decrease of index ma/[r+k] vs before treatment; 20 mg/kg intraperitoneal, rabbits
Procedure: Determination of the antithrombin activity
The antithrombin activity on the PRP (platelet rich plasma) obtained following the above described method was assessed by Hartert's thromboelastograph (Hellige model). The coagulation was induced by adding to 0.25 ml of plasma 0.06 ml of a thrombin solution (Roche Topostasin® per os) at 60 units*, pH 7.4**. The antithrombin activity was assessed in terms of a percent decrease of the index (ma/[r+k]) which was calculated from the thromboelastograph diagram, wherein r is the reaction time, k is the speed of the coagulum formation and ma is the maximum spread of the tong, after an intraperitoneal treatment with a dose of 20 mg/kg of each compound under examination, referred to the same index obtained before the treatment (control).
as §4

Compound | inhibition in vivo at 20 mg/kg [%]
C=C(C)COc1ccc(C(=O)N(Cc2cccnc2)C(C)C)cc1C(=O)N(Cc1cccnc1)C(C)C [Example 56] | 47.3
CCCOc1ccc(C(=O)NCc2ccncc2)cc1C(=O)NCc1ccncc1 [Example 59] | 39.1
COc1cc(C(=O)NCc2cccnc2)cc(C(=O)NCc2cccnc2)c1OCC(C)(C)C [Example 37] | 25.5
C=CCCCOc1ccc(C(=O)NCc2cccnc2)cc1C(=O)NCc1cccnc1 [Example 9] | 49.9
CCC(C)(C)Oc1c(Cl)cc(C(=O)NCc2cccnc2)cc1C(=O)NCc1cccnc1 [Example 29] | 27.3
C=C(C)COc1ccc(C(=O)N(CCC)Cc2ccncc2)cc1C(=O)N(CCC)Cc1ccncc1 [Example 70] | 48.2
CC=COc1c(Cl)cc(C(=O)N(CCCCC)Cc2cccnc2)cc1C(=O)N(CCCCC)Cc1cccnc1 [Example 51] | 28.2
COc1ccc(C(=O)NCc2ccncc2)cc1C(=O)NCc1ccncc1 [Example 58] | 37
CCCN(Cc1cccnc1)C(=O)c1ccc(OC)c(C(=O)N(CCC)Cc2cccnc2)c1 [Example 41] | 26.3
C=CCOc1c(Cl)cc(C(=O)NCc2cccnc2)cc1C(=O)NCc1cccnc1 [Example 25] | 40.6
COc1cc(C(=O)NCc2cccnc2)cc(C(=O)NCc2cccnc2)c1OC1CCC1 [Example 19] | 32.8

tested on: blood coagulum; experiment: Fibrinolytic activity, Fearnley method (lysis of blood coagulum in toto); assay type: in vivo; conditions: Oryctolagus cuniculus, ip, 0.5 h, percent decrease of coagulum weight after 30 minutes at 37° C.; 25 mg/kg intraperitoneal, rabbits; read-out: fibrinolytic activity (FL)
Procedure: Determination of the fibrinolytic activity
The determination of the fibrinolytic activity was made following the Fearnley method for the lysis of the blood coagulum in toto.
0.2 ml of blood were withdrawn from the marginal vein of the ear of rabbits treated in the same way as the previously described tests, before and after an intraperitoneal injection of the compounds under test at a dose level of 25 mg/kg for each compound.
The blood samples were placed in test tubes containing 1.7 ml of phosphate buffer at pH 7.4 and 0.1 ml of thrombin (Roche Topostasin ® per os) at 50 units NIH/ml, and maintained in an ice bath. The test tubes were maintained at said temperature for 30 minutes and thereupon were transferred to a temperature controlled water bath at 37° C.
The fibrinolytic activity was determined as a percent decrease of the coagulum weight, measured after incubation for 30 minutes at 37° C.
as §4

Compound | fibrinolytic activity (percent decrease of coagulum weight) at 25 mg/kg [%]
C=C(C)COc1ccc(C(=O)N(Cc2cccnc2)C(C)C)cc1C(=O)N(Cc1cccnc1)C(C)C [Example 56] | 38.1
CCCOc1ccc(C(=O)NCc2ccncc2)cc1C(=O)NCc1ccncc1 [Example 59] | 32.8
COc1cc(C(=O)NCc2cccnc2)cc(C(=O)NCc2cccnc2)c1OCC(C)(C)C [Example 37] | 21.9
C=CCCCOc1ccc(C(=O)NCc2cccnc2)cc1C(=O)NCc1cccnc1 [Example 9] | 40.3
CCC(C)(C)Oc1c(Cl)cc(C(=O)NCc2cccnc2)cc1C(=O)NCc1cccnc1 [Example 29] | 24.1
C=C(C)COc1ccc(C(=O)N(CCC)Cc2ccncc2)cc1C(=O)N(CCC)Cc1ccncc1 [Example 70] | 39.3
CC=COc1c(Cl)cc(C(=O)N(CCCCC)Cc2cccnc2)cc1C(=O)N(CCCCC)Cc1cccnc1 [Example 51] | 26.1
COc1ccc(C(=O)NCc2ccncc2)cc1C(=O)NCc1ccncc1 [Example 58] | 31.7
CCCN(Cc1cccnc1)C(=O)c1ccc(OC)c(C(=O)N(CCC)Cc2cccnc2)c1 [Example 41] | 22.3
C=CCOc1c(Cl)cc(C(=O)NCc2cccnc2)cc1C(=O)NCc1cccnc1 [Example 25] | 25.9
COc1cc(C(=O)NCc2cccnc2)cc(C(=O)NCc2cccnc2)c1OC1CCC1 [Example 19] | 28.1

tested on: CaCl2-induced plasma coagulation; experiment: Anticoagulant activity on PRP, Hartert's thromboelastograph; assay type: in vivo, New Zealand rabbits; conditions: Oryctolagus cuniculus, ip, percent increase of total time for coagulum formation (r+k) vs before treatment; 25 mg/kg intraperitoneal, rabbits; read-out: anticoagulant activity (AC)
Procedure: Determination of the anticoagulant activity
The anticoagulant activity was also assessed on PRP of animals treated as described in the preceding methods, by using again Hartert's thromboelastograph method.
The plasma coagulation was induced by adding to 0.25 ml PRP a 1.29% solution of CaCl2.
The anticoagulant effect was determined as a percent increase of the total time for the coagulum formation (the index r+k can be obtained from the thromboelastograph diagram) in a plasma after treatment, referred to the same index obtained before the treatment (control). Again the dose level was 25 mg/kg for each compound under examination, intraperitoneally.
as §4

Compound | change in vivo at 25 mg/kg [%]
C=C(C)COc1ccc(C(=O)N(Cc2cccnc2)C(C)C)cc1C(=O)N(Cc1cccnc1)C(C)C [Example 56] | 18.6
CCCOc1ccc(C(=O)NCc2ccncc2)cc1C(=O)NCc1ccncc1 [Example 59] | 20.6
COc1cc(C(=O)NCc2cccnc2)cc(C(=O)NCc2cccnc2)c1OCC(C)(C)C [Example 37] | 14.2
C=CCCCOc1ccc(C(=O)NCc2cccnc2)cc1C(=O)NCc1cccnc1 [Example 9] | 14.5
CCC(C)(C)Oc1c(Cl)cc(C(=O)NCc2cccnc2)cc1C(=O)NCc1cccnc1 [Example 29] | 20
C=C(C)COc1ccc(C(=O)N(CCC)Cc2ccncc2)cc1C(=O)N(CCC)Cc1ccncc1 [Example 70] | 18.9
CC=COc1c(Cl)cc(C(=O)N(CCCCC)Cc2cccnc2)cc1C(=O)N(CCCCC)Cc1cccnc1 [Example 51] | 15.7
COc1ccc(C(=O)NCc2ccncc2)cc1C(=O)NCc1ccncc1 [Example 58] | 18.2
CCCN(Cc1cccnc1)C(=O)c1ccc(OC)c(C(=O)N(CCC)Cc2cccnc2)c1 [Example 41] | 15.8
C=CCOc1c(Cl)cc(C(=O)NCc2cccnc2)cc1C(=O)NCc1cccnc1 [Example 25] | 15.5
COc1cc(C(=O)NCc2cccnc2)cc(C(=O)NCc2cccnc2)c1OC1CCC1 [Example 19] | 15.6
